Patent US20240115546A1, “AGENT FOR PREVENTING OR AMELIORATING PRURITUS” (KAO CORPORATION, priority 2021, published 2024)

Legend:
[1] = test system: AD model mice (NC/Nga, mite allergen-induced); experiment: Scratching behavior in AD model mice given C3a receptor antagonist; format: in vivo, mouse; conditions: 200 μL subcutaneous, Compound 1 0.5 mg/mL, Compound 2 0.05 mg/mL, three times a week; measured for 3 hours after last administration; vs solvent alone; FIG. 7
Method: Seven-week-old female NC/Nga mice were used.
Preparation of AD model mice: The back of the neck was shaved, and 100 mg of an ointment containing mite allergen: Biostir AD (Biostir Inc.) was applied to the back of the neck and auricular region under isoflurane anesthesia for initial sensitization. Four days after the first application of the ointment containing mite allergen, 150 μL of 4% (w/v) SDS solution and 100 mg of ointment containing mite allergen were applied to the back of the neck and auricular region under isoflurane anesthesia. Thereafter, the same procedure was performed four times at a frequency of once every 3 to 4 days to induce AD-like dermatitis.
Compound 1 or Compound 2, whose C3a receptor antagonism was confirmed in Example 4 above, was used as a C3a receptor antagonist. Compound 1 or Compound 2 was dissolved in saline containing 20% polyethylene glycol 400, of which 200 μL was administered subcutaneously to the back of the neck. The control group was administered with the same amount of only the above solvent. The concentration of the C3a receptor antagonist solution was set at 0.5 mg/mL for Compound 1 and 0.05 mg/mL for Compound 2. […]
Four days after the last application of the ointment containing mite allergen, the scratching behavior was measured for 3 hours after the last administration of the sample. […]

[2] = test system: AEW model mice (C57BL/6J); experiment: Scratching behavior in AEW model mice given C3a receptor antagonist; format: in vivo, mouse; conditions: 200 μL subcutaneous, Compound 1 0.5 mg/mL, Compound 2 0.05 mg/mL, once daily for 8 days; measured for 3 hours after last administration; vs solvent alone; FIG. 8
Source text: The animals used were male C57BL/6J mice.
Preparation of AEW model: The back of the neck was shaved, and absorbent cotton soaked with a 1:1 (v/v) mixture of acetone and diethyl ether was applied and allowed to stand for 15 seconds. Immediately thereafter, absorbent cotton soaked with water was applied for 30 seconds. This treatment was repeated twice/day (morning and evening) for 7 days.
Compound 1 or Compound 2, whose C3a receptor antagonism was confirmed in Example 4 above, was used as a C3a receptor antagonist. Compound 1 or Compound 2 was dissolved in saline containing 20% polyethylene glycol 400, of which 200 μL was administered subcutaneously to the back of the neck. The control group was administered with the same amount of only the above solvent. The concentration of the C3a receptor antagonist solution was set at 0.5 mg/mL for Compound 1 and 0.05 mg/mL for Compound 2. Sample administration started after the first AEW treatment and was performed at a frequency of once daily for 8 days.
Sixteen hours after the last AEW treatment, the scratching behavior was measured for 3 hours after the last administration of the sample. MicroAct (Neuroscience) was used to measure the scratching behavior.

C3a receptor = molecular target: T1, C3a receptor (Homo sapiens, UniProt Q16581); experiment: Ca2+-flux assay for C3a receptor antagonism in transfected HEK293 cells; format: cell-based; conditions: antagonist 10 nM, mouse TLQP-21 1 μM; HEK293 transfected with C3a receptor and GNA16; Fluo-4; vs control; FIG. 6
T1 sequence (Q16581 1-482): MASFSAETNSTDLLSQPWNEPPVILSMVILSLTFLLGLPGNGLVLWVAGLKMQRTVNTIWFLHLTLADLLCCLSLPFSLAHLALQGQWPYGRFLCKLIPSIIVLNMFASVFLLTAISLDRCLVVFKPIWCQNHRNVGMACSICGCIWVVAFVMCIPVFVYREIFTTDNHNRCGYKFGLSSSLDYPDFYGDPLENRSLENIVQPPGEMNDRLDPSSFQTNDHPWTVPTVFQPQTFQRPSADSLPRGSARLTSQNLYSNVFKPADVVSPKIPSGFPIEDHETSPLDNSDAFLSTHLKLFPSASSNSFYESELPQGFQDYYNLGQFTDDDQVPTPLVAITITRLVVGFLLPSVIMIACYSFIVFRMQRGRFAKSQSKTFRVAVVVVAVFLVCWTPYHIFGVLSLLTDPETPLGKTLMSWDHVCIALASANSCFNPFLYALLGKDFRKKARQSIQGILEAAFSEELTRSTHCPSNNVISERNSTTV
Method: In the following evaluation, Compound 1 and Compound 2 were dissolved in DMSO and diluted with HBSS as appropriate.
Human Embryonic Kidney cells 293 (HEK293) were used, transfected with the expression vectors necessary for evaluation according to the following.
A transfection solution was prepared by sequentially adding C3a receptor expression vector, GNA16 expression vector, and PEI-MAX (PolyScience) solution to serum-free DMEM medium, mixing well, and then allowing it to stand at room temperature for 20 minutes. […]
The cells for evaluating C3a receptor response described above were seeded in a 96-well Black Polystyrene Microplate (Thermo fisher scientific) precoated with Poly-L-Ornithine Solution (FUJIFILM Wako Pure Chemical). […] After 15 minutes, a mouse TLQP-21 solution was added for C3a receptor stimulation, and the Ca^2+ influx associated with the stimulation was measured over time as intracellular fluorescence intensity (Ex: 494 nm, Em: 525 nm). The value obtained by subtracting the measured value when HBSS was added instead of mouse TLQP-21 solution (blank) was used as the measured value. The C3a receptor antagonist solution and mouse TLQP-21 solution were added after adjusting their concentrations by appropriately diluting them so that their final concentrations when measuring fluorescence intensity were 10 nM and 1 μM, respectively. […]

Row | SMILES | Scratching behavior [1] | Scratching behavior [2] | Fluorescence intensity due to C3a receptor stimulation by TLQP-21 (Ca2+ influx, integrated over 3 min) (C3a receptor)
1 | N=C(N)NCCC[C@H](NC(=O)c1ccc(C(c2ccccc2)c2ccccc2)s1)C(=O)O [Compound 1, L-arginine, N2-[[5-(diphenylmethyl)-2-thienyl]carbonyl]] | significant decrease | significant decrease | greatly suppressed
2 | Cc1cc(C(c2ccc(Cl)cc2)c2ccc(Cl)cc2)sc1C(=O)N[C@@H](CCCNC(=N)N)C(=O)O [Compound 2, L-arginine, N2-[[5-[bis(4-chlorophenyl)methyl]-3-methyl-2-thienyl]carbonyl]] | significant decrease | significant decrease | greatly suppressed
